Measurements: patent US5932709A (University of Michigan, priority 1997, dated 1999)
pIC50: −log10 of the molar value. Entries after “also recorded” stand apart in the source; their conditions may differ.

Assays:
murine P388 leukemia = test: Murine P388 leukemia model in vivo; set-up: species or system mouse (B6D2F1); conditions: for Survivors: 30-day; for toxic deaths: at the high dose; for efficacy vs P388 leukemia: i.p. five day schedule; for 30-day survivors (cures): 100 mg/kg
Experimental: For the B16 melanoma model, the following procedure was used. B6D2F1 mice receive i.p. inocula of B16 murine melanoma brei prepared from B16 tumors growing s.c. in mice (day 0). […] If dosing information for agents is not available, the maximum tolerated dose (MTD) is determined in initial dose finding experiments in non-tumored mice.
The mean survival times of all groups are calculated, and results are expressed as mean survival of treated mice/mean survival of control mice (T/C)×100%. A T/C value of 150 means that the mice in the treated group lived 50% longer than those of the control group; this is sometimes referred to as the increase in life span or ILS value.
For the P388 leukemia model, the procedure followed is exactly the same as the aforementioned B16 model. The tumor inoculum is prepared by removing ascited fluid containing P388 cells from tumored B6D2F1 mice, centrifuging the cells, and then resuspending the leukemia cells in saline. Mice receive 1×10^6 P388 cells i.p. on day 0.

[1] = biological target: T1, human placental topoisomerase I (Homo sapiens, UniProt P11387); test: Inhibition of topoisomerase I catalytic activity (relaxation of supercoiled SV40 DNA); type: biochemical; conditions: for relaxation of supercoiled DNA: FIG. 18 / FIG. 19, in words; for topoisomerase I inhibitory activity: comparison in words, vs camptothecin; for topoisomerase I inhibition: highest concentration tested (100 μg/mL), in words
T1 construct: purchased TopoGen; host or cells: human placenta
T1 sequence (P11387 1-765): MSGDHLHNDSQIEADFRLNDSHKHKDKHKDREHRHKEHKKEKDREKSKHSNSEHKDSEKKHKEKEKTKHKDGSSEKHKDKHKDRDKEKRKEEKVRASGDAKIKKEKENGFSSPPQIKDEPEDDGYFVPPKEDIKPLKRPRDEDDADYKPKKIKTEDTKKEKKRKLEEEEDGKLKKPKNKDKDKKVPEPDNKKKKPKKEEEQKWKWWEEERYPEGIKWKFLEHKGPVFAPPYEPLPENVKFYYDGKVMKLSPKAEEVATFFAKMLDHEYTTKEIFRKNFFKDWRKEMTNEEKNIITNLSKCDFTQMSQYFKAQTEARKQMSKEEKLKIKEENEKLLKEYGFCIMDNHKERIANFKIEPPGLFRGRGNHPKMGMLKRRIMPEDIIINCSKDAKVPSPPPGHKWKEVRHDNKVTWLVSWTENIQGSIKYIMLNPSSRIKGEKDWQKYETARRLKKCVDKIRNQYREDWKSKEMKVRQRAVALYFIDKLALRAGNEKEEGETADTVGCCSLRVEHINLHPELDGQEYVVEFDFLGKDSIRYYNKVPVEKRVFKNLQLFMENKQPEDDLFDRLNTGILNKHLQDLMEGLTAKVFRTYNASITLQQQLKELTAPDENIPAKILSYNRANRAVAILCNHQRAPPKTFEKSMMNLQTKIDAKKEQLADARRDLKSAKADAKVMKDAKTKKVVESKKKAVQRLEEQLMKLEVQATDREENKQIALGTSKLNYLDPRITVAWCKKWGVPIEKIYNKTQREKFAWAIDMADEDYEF
Experimental: The topoisomerase I catalytic activity was measured by converting the supercoiled SV40 DNA (Form I) to the relaxed form (Form Io). All reactions were performed in 20 μL reaction buffer (Tris-HCl, 10 mM, pH 7.5; EDTA, 1 mM; NaCl, 100 mM) with 0.25 μg SV40 DNA, 0.5 unit of human placental topoisomerase I (TopoGen) and graded concentrations of the analog tested. The reaction mixtures were incubated at 37° C. for 30 minutes. […] Ten μL of the reaction mixture was loaded onto a 1% agarose gel prepared in TAE buffer containing 2 μg/mL chloroquine; and the electrophoresis was performed at 82 volt for 4.5 hr in the TAE buffer containing 2 μg/mL chloroquine. […] The gels were then stained with 0.5 μg/mL ethidium bromide solution for 30 min or longer (if chloroquine is present during the electrophoresis step), and destained with 5 changes of deionized water. […] The DNA bands (image) on the negative were densitometrically scanned with a Molecular Dynamic Personal Densitometer. The percent inhibition of Toposiomerase I activity is calculated based on the following equation:
% Inhibition=(FSC(E+D) -FSC(E))/(FSC(C)
where FSC(E+D) represents fraction of supercoiled DNA in the presence of enzyme and drug; FSC(E) represents fraction of supercoiled DNA in the presence of enzyme alone; FSC(C) represents fraction of supercoiled DNA in the untreated SV40 DNA; the IC50 value was estimated using the same four-parameter logistic equation described in the in vitro growth inhibition studies.

tumor cells = test: MTT growth inhibition across tumor cell lines (P388, P388/CPT, B16, HT-29, MCF-7M); type: cell-based; conditions: for growth inhibitory activity: comparison in words
Experimental: [See "Rapid Colorimetric Assay For Cellular Growth And Survival: Application To Proliferation And Cytotoxicity Assays," J. Immun. Meth. 65:55 (1983)]. The assay utilizes a tetrazolium salt to quantitatively measure mammalian cell survival and proliferation by colorimetric methods. In particular, MTT, a pale yellow compound with minimal absorbance, is incubated with cancerous cells in addition to (or in the absence of) a particular camptothecin analog. Living cells with active mitochondrial enzymes metabolize the MTT into a dark blue/purple formazan product with high absorbance. The exact procedure used to test the camptothecin analogs of the present invention is described below.
Exponentially growing cells (1-2×10^3 cells, unless specified otherwise) in 0.1 mL medium were seeded on day 0 in a 96-well microtiter plate. On day 1, 0.1 mL aliquots of medium containing graded concentrations of test analogs were added to the cell plates. After incubation at 37° C. in a humidified incubator for 3 days (P388, P388/CPT, B16) or 6 days (HT-29, MCF-7M), the plates were centrifuged briefly and 100 μL of the growth medium was removed. Cell cultures were incubated with 50 μL of 3-(4,5-dimethylthiazol-2-yl)-2,5-diphenyl-tetrazolium bromide [MTT, 1 mg/mL in Dulbecco's phosphate buffered saline (PBS)] for 4 hr at 37° C. The resulting purple formazan precipitate was solubilized with 200 μL of 0.04 N HCl in isopropyl alcohol. Absorbance was monitored in a BioRad Model 3550 Microplate Reader at a test wavelength of 570 nm and a reference wavelength of 630 nm. The absorbance is transferred to a PC 486 computer. The IC50 values were determined by a computer program (EZ-ED50) that fits all of the data to the following four-parameter logistic equation: […]

[2] = lower dose of 100 mg/kg (so in the source)

Row | SMILES | T/C (mean survival treated/control) (murine P388 leukemia; 20 mg/kg i.p. daily×5) | Tox Deaths (murine P388 leukemia; 20 mg/kg i.p. daily×5) | ΔWeight (%) (murine P388 leukemia; 20 mg/kg i.p. daily×5) | Survivors (murine P388 leukemia; 20 mg/kg i.p. daily×5) | toxic deaths (murine P388 leukemia) | weight loss (murine P388 leukemia; at the high dose (MTD)) | efficacy vs P388 leukemia (murine P388 leukemia; in words) | pIC50 [1] | relaxation of supercoiled DNA [1] | topoisomerase I inhibitory activity [1] | growth inhibitory activity (tumor cells) | 30-day survivors (cures) (murine P388 leukemia) | T/C (mean survival treated/control) (murine P388 leukemia; 100 mg/kg i.p. daily×5) | Tox Deaths (murine P388 leukemia; 100 mg/kg i.p. daily×5) | ΔWeight (%) (murine P388 leukemia; 100 mg/kg i.p. daily×5) | Survivors (murine P388 leukemia; 100 mg/kg i.p. daily×5) | topoisomerase I inhibition [1] | other results
1 | CC[C@@]1(O)C(=O)OCc2c1cc1n(c2=O)Cc2c-1nc1ccccc1c2CO[C@@H]1C=C[C@H](O)[C@@H](CO)O1 [HAR7, 7-[2,3-dideoxy-α-D-erythro-hex-2-enopyranosyl]-oxymethylcamptothecin] | 192% | 0/10 | -1.7% | 0/10 | no toxic deaths occurred | 12%-16 | high, curative efficacy; also recorded: excellent activity vs. P388 | 5.40 | inhibition of relaxation of supercoiled DNA | quite similar to those of camptothecin | quite similar to those of camptothecin | – | – | – | – | – | – | T/C (mean survival treated/control) (murine P388 leukemia; 40 mg/kg i.p. daily×5): 223%; Tox Deaths (murine P388 leukemia; 40 mg/kg i.p. daily×5): 0/10; ΔWeight (%) (murine P388 leukemia; 40 mg/kg i.p. daily×5): -16.0%; Survivors (murine P388 leukemia; 40 mg/kg i.p. daily×5): 3/10; 30-day survivors (murine P388 leukemia; 40 mg/kg, high dose): three; topoisomerase I inhibition relative to HAR4 ([1]; more inhibitory than HAR4): 10 times
2 | CC[C@@]1(O)C(=O)OCc2c1cc1n(c2=O)Cc2c-1nc1ccccc1c2CO[C@@H]1C=C[C@H](O[C@H]2O[C@H](CO)[C@@H](O)[C@H](O)[C@H]2O)[C@@H](CO)O1 [HAR6, 7-[4-O-(α-D-glucopyranosyl)-2,3-dideoxy-α-D-erythro-hex-2-enopyranosyl]-oxymethylcamptothecin] | – | – | – | – | no toxic deaths occurred | 12%-16 | high, curative efficacy | < 3.83 | inhibition of relaxation of supercoiled DNA | – | – | three | 320% | 0/10 | -12.2% | 3/10 | moderately inhibited topoisomerase I activity | T/C (mean survival treated/control) (murine P388 leukemia; 50 mg/kg i.p. daily×5): 225%; Tox Deaths (murine P388 leukemia; 50 mg/kg i.p. daily×5): 0/10; ΔWeight (%) (murine P388 leukemia; 50 mg/kg i.p. daily×5): -3.5%; Survivors (murine P388 leukemia; 50 mg/kg i.p. daily×5): 1/10; T/C (murine P388 leukemia; [2]): 225%; cures (murine P388 leukemia; [2]): one
3 | CC[C@@]1(O)C(=O)OCc2c1cc1n(c2=O)Cc2c-1nc1ccccc1c2CO[C@@H]1C=C[C@H](O[C@H]2O[C@H](COC(C)=O)[C@@H](OC(C)=O)[C@H](OC(C)=O)[C@H]2OC(C)=O)[C@@H](COC(C)=O)O1 [HAR5, 7-[6-O-acetyl-4-O-(2,3,4,6-tetra-O-acetyl-α-D-glucopyranosyl)-2,3-dideoxy-α-D-erythro-hex-2-enopyranosyl]oxymethylcamptothecin] | – | – | – | – | – | – | less efficacious compared to the other three compounds | < 3.94 | inhibition of relaxation of supercoiled DNA | – | more cytotoxic than camptothecin hydroxyl maltal (HAR6) | one | 141% | 0/10 | +0.7% | 1/10 | moderately inhibited topoisomerase I activity | T/C (mean survival treated/control) (murine P388 leukemia; 200 mg/kg i.p. daily×5): 161%; Tox Deaths (murine P388 leukemia; 200 mg/kg i.p. daily×5): 0/10; ΔWeight (%) (murine P388 leukemia; 200 mg/kg i.p. daily×5): -2.0%; Survivors (murine P388 leukemia; 200 mg/kg i.p. daily×5): 0/10; weight loss (murine P388 leukemia; at its solubility-limiting dose, in words): only insignificant weight loss
4 | CC[C@@]1(O)C(=O)OCc2c1cc1n(c2=O)Cc2c-1nc1ccccc1c2CO[C@@H]1C=C[C@H](OC(C)=O)[C@@H](COC(C)=O)O1 [HAR4, 7-[4,6-di-O-acetyl-2,3-dideoxy-α-D-erythro-hex-2-enopyranosyl]oxymethylcamptothecin] | 206% | 0/10 | -14.0% | 2/10 | no toxic deaths occurred | 12%-16 | high, curative efficacy; also recorded: excellent activity vs. P388 | 4.37 | inhibition of relaxation of supercoiled DNA | quite similar to those of camptothecin | quite similar to those of camptothecin | – | – | – | – | – | – | cures (murine P388 leukemia; 10 mg/kg): two; T/C (mean survival treated/control) (murine P388 leukemia; 10 mg/kg i.p. daily×5): 201%; Tox Deaths (murine P388 leukemia; 10 mg/kg i.p. daily×5): 0/10; ΔWeight (%) (murine P388 leukemia; 10 mg/kg i.p. daily×5): -0.6%; Survivors (murine P388 leukemia; 10 mg/kg i.p. daily×5): 2/10; cures (murine P388 leukemia; 20 mg/kg): two; potency in inhibiting growth of tumor cells (tumor cells; more potent than HAR7): 2-3 fold
